Laboratory results published in patent US20230085307A1, “PYRIDAZINONE COMPOUND AND HERBICIDE” (NISSAN CHEMICAL CORPORATION, priority 2019, published 2023).

What was measured:
late watergrass = assay: Test Example 1: herbicidal activity, application before weed generation under submerged conditions (Table 16, symbol A); assay type: in vivo, late watergrass (Echinochloa oryzicola); settings: 320 g/ha applied herbicide
How it was run: (§1)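 Emulsion formulation, water-diluted to set dose, was put onto the flooded surface (4 cm depth, alluvial soil) the same day weeds were sown and 2.5-leaf rice transplanted. After 3 weeks at 25-30 °C under glass, each species was rated 0 (≤5% kill) to 5 (≥90% kill).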

Japanese bulrush = assay: Test Example 1: herbicidal activity, application before weed generation under submerged conditions (Table 16, symbol B); assay type: in vivo, Japanese bulrush (Schoenoplectus juncoides); settings: 320 g/ha applied herbicide
How it was run: as §1

oval-leafed pondweed = assay: Test Example 1: herbicidal activity, application before weed generation under submerged conditions (Table 16, symbol C); assay type: in vivo, oval-leafed pondweed (Monochoria vaginalis); settings: 320 g/ha applied herbicide
How it was run: as §1

barnyard grass [1] = assay: Test Example 3: herbicidal effect by foliage application, Wagner pot (Table 18, symbol H); assay type: in vivo, barnyard grass (Echinochloa crus-galli); settings: amount of applied herbicide 320 g/ha
How it was run: (§2)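 Plants were sown in alluvial soil held under 0.1–0.5 cm standing water and grown 14 days in a greenhouse at 25–30 °C. An emulsifiable formulation, water-diluted to the set dose, was then sprayed onto the foliage, and effects were scored three weeks later using previously defined criteria.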

Chinese sprangletop = assay: Test Example 3: herbicidal effect by foliage application, Wagner pot (Table 18, symbol D); assay type: in vivo, chinese sprangletop (Leptochloa chinensis); settings: amount of applied herbicide 320 g/ha
How it was run: as §2

rice flat sedge = assay: Test Example 3: herbicidal effect by foliage application, Wagner pot (Table 18, symbol E); assay type: in vivo, rice flat sedge (Cyperus iria); settings: amount of applied herbicide 320 g/ha
How it was run: as §2

southern crabgrass [2] = assay: Test Example 4: herbicidal effect by soil treatment (Table 19, symbol F); assay type: in vivo, southern crabgrass (Digitaria ciliaris); settings: amount of applied herbicide 320 g/ha
How it was run: (§3)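 Seeds were sown in sterilized diluvial soil and covered with about 1.5 cm of soil. An emulsion formulation diluted with water to a predetermined herbicide amount was sprayed evenly onto the soil surface. Plants grew in a greenhouse at 25° C. to 30° C., and the effect was scored three weeks after application using criteria from an earlier test.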

green foxtail [3] = assay: Test Example 4: herbicidal effect by soil treatment (Table 19, symbol G); assay type: in vivo, green foxtail (Setaria viridis); settings: amount of applied herbicide 320 g/ha
How it was run: as §3

barnyard grass [4] = assay: Test Example 4: herbicidal effect by soil treatment (Table 19, symbol H); assay type: in vivo, barnyard grass (Echinochloa crus-galli); settings: amount of applied herbicide 320 g/ha
How it was run: as §3

wild oat [5] = assay: Test Example 4: herbicidal effect by soil treatment (Table 19, symbol I); assay type: in vivo, wild oat (Avena fatua); settings: amount of applied herbicide 320 g/ha
How it was run: as §3

blackgrass [6] = assay: Test Example 4: herbicidal effect by soil treatment (Table 19, symbol J); assay type: in vivo, blackgrass (Alopecurus myosuroides); settings: amount of applied herbicide 320 g/ha
How it was run: as §3

Italian ryegrass [7] = assay: Test Example 4: herbicidal effect by soil treatment (Table 19, symbol K); assay type: in vivo, Italian ryegrass (Lolium multiflorum); settings: amount of applied herbicide 320 g/ha
How it was run: as §3

windgrass [8] = assay: Test Example 4: herbicidal effect by soil treatment (Table 19, symbol L); assay type: in vivo, windgrass (Apera spica-venti); settings: amount of applied herbicide 320 g/ha
How it was run: as §3

velvetleaf [9] = assay: Test Example 4: herbicidal effect by soil treatment (Table 19, symbol M); assay type: in vivo, velvetleaf (Abutilon theophrasti); settings: amount of applied herbicide 320 g/ha
How it was run: as §3

redroot pigweed [10] = assay: Test Example 4: herbicidal effect by soil treatment (Table 19, symbol N); assay type: in vivo, redroot pigweed (Amaranthus retroflexus); settings: amount of applied herbicide 320 g/ha
How it was run: as §3

lambsquarters [11] = assay: Test Example 4: herbicidal effect by soil treatment (Table 19, symbol O); assay type: in vivo, lambsquarters (Chenopodium album); settings: amount of applied herbicide 320 g/ha
How it was run: as §3

chickweed [12] = assay: Test Example 4: herbicidal effect by soil treatment (Table 19, symbol P); assay type: in vivo, common chickweed (Stellaria media); settings: amount of applied herbicide 320 g/ha
How it was run: as §3

persian speedwell [13] = assay: Test Example 4: herbicidal effect by soil treatment (Table 19, symbol R); assay type: in vivo, Persian speedwell (Veronica persica); settings: amount of applied herbicide 320 g/ha
How it was run: as §3

southern crabgrass [14] = assay: Test Example 5: herbicidal effect by foliage application, plastic box (Table 20, symbol F); assay type: in vivo, southern crabgrass (Digitaria ciliaris); settings: foliage application, 320 g/ha, evaluated three weeks after application
How it was run: (§4)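 Plants sown in sterilized diluvial soil and grown 14 days in a greenhouse at 25° C to 30° C, then sprayed on the foliage with the compound's emulsion diluted in water to a predetermined herbicide amount. Injury to weeds and crops scored three weeks after application on a visual rating scale.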

green foxtail [15] = assay: Test Example 5: herbicidal effect by foliage application, plastic box (Table 20, symbol G); assay type: in vivo, green foxtail (Setaria viridis); settings: foliage application, 320 g/ha, evaluated three weeks after application
How it was run: as §4

barnyard grass [16] = assay: Test Example 5: herbicidal effect by foliage application, plastic box (Table 20, symbol H); assay type: in vivo, barnyard grass (Echinochloa crus-galli); settings: foliage application, 320 g/ha, evaluated three weeks after application
How it was run: as §4

wild oat [17] = assay: Test Example 5: herbicidal effect by foliage application, plastic box (Table 20, symbol I); assay type: in vivo, wild oat (Avena fatua); settings: foliage application, 320 g/ha, evaluated three weeks after application
How it was run: as §4

blackgrass [18] = assay: Test Example 5: herbicidal effect by foliage application, plastic box (Table 20, symbol J); assay type: in vivo, blackgrass (Alopecurus myosuroides); settings: foliage application, 320 g/ha, evaluated three weeks after application
How it was run: as §4

Italian ryegrass [19] = assay: Test Example 5: herbicidal effect by foliage application, plastic box (Table 20, symbol K); assay type: in vivo, Italian ryegrass (Lolium multiflorum); settings: foliage application, 320 g/ha, evaluated three weeks after application
How it was run: as §4

windgrass [20] = assay: Test Example 5: herbicidal effect by foliage application, plastic box (Table 20, symbol L); assay type: in vivo, windgrass (Apera spica-venti); settings: foliage application, 320 g/ha, evaluated three weeks after application
How it was run: as §4

velvetleaf [21] = assay: Test Example 5: herbicidal effect by foliage application, plastic box (Table 20, symbol M); assay type: in vivo, velvetleaf (Abutilon theophrasti); settings: foliage application, 320 g/ha, evaluated three weeks after application
How it was run: as §4

redroot pigweed [22] = assay: Test Example 5: herbicidal effect by foliage application, plastic box (Table 20, symbol N); assay type: in vivo, redroot pigweed (Amaranthus retroflexus); settings: foliage application, 320 g/ha, evaluated three weeks after application
How it was run: as §4

lambsquarters [23] = assay: Test Example 5: herbicidal effect by foliage application, plastic box (Table 20, symbol O); assay type: in vivo, lambsquarters (Chenopodium album); settings: foliage application, 320 g/ha, evaluated three weeks after application
How it was run: as §4

chickweed [24] = assay: Test Example 5: herbicidal effect by foliage application, plastic box (Table 20, symbol P); assay type: in vivo, common chickweed (Stellaria media); settings: foliage application, 320 g/ha, evaluated three weeks after application
How it was run: as §4

persian speedwell [25] = assay: Test Example 5: herbicidal effect by foliage application, plastic box (Table 20, symbol R); assay type: in vivo, Persian speedwell (Veronica persica); settings: foliage application, 320 g/ha, evaluated three weeks after application
How it was run: as §4

| Structure (SMILES) | Herbicidal effect on A: late watergrass (grade 0-5) (late watergrass) | Herbicidal effect on B: Japanese bulrush (grade 0-5) (Japanese bulrush) | Herbicidal effect on C: oval-leafed pondweed (grade 0-5) (oval-leafed pondweed) | herbicidal effect on H: barnyard grass (barnyard grass [1]) | herbicidal effect on D: Chinese sprangletop (Chinese sprangletop) | herbicidal effect on E: rice flat sedge (rice flat sedge) | F: southern crabgrass, herbicidal effect rating (southern crabgrass [2]) | G: green foxtail, herbicidal effect rating (green foxtail [3]) | H: barnyard grass, herbicidal effect rating (barnyard grass [4]) | I: wild oat, herbicidal effect rating (wild oat [5]) | J: blackgrass, herbicidal effect rating (blackgrass [6]) | K: Italian ryegrass, herbicidal effect rating (Italian ryegrass [7]) | L: windgrass, herbicidal effect rating (windgrass [8]) | M: velvetleaf, herbicidal effect rating (velvetleaf [9]) | N: redroot pigweed, herbicidal effect rating (redroot pigweed [10]) | O: lambsquarters, herbicidal effect rating (lambsquarters [11]) | P: chickweed, herbicidal effect rating (chickweed [12]) | R: persian speedwell, herbicidal effect rating (persian speedwell [13]) | herbicidal effect on F: southern crabgrass (criteria 0-5) (southern crabgrass [14]) | herbicidal effect on G: green foxtail (criteria 0-5) (green foxtail [15]) | other results |
| --- | --- | --- | --- | --- | --- | --- | --- | --- | --- | --- | --- | --- | --- | --- | --- | --- | --- | --- | --- | --- | --- |
| Cc1nn(C)c(=O)c(-c2c(-c3ccccc3Cl)sc3ccc(F)cc23)c1O [2-203] | 2 (Herbicidal rate of 20% or more and less than 40%) | 0 (Herbicidal rate of 5% or less (almost no effect)) | 0 (Herbicidal rate of 5% or less (almost no effect)) | 4 (Herbicidal rate of 70% or more and less than 90%) | 4 (Herbicidal rate of 70% or more and less than 90%) | 5 (Herbicidal rate of 90% or more (almost completely withered)) | 0 (Herbicidal rate of 5% or less (almost no effect)) | 0 (Herbicidal rate of 5% or less (almost no effect)) | 0 (Herbicidal rate of 5% or less (almost no effect)) | 0 (Herbicidal rate of 5% or less (almost no effect)) | 0 (Herbicidal rate of 5% or less (almost no effect)) | 0 (Herbicidal rate of 5% or less (almost no effect)) | 0 (Herbicidal rate of 5% or less (almost no effect)) | 1 (Herbicidal rate of 5% or more and less than 20%) | 2 (Herbicidal rate of 20% or more and less than 40%) | 3 (Herbicidal rate of 40% or more and less than 70%) | 3 (Herbicidal rate of 40% or more and less than 70%) | 0 (Herbicidal rate of 5% or less (almost no effect)) | 0 (Herbicidal rate of 5% or less (almost no effect)) | 4 (Herbicidal rate of 70% or more and less than 90%) | herbicidal effect on H: barnyard grass (criteria 0-5) (barnyard grass [16]): 2 (Herbicidal rate of 20% or more and less than 40%); herbicidal effect on I: wild oat (criteria 0-5) (wild oat [17]): 0 (Herbicidal rate of 5% or less (almost no effect)); herbicidal effect on J: blackgrass (criteria 0-5) (blackgrass [18]): 0 (Herbicidal rate of 5% or less (almost no effect)); herbicidal effect on K: Italian ryegrass (criteria 0-5) (Italian ryegrass [19]): 2 (Herbicidal rate of 20% or more and less than 40%); herbicidal effect on L: windgrass (criteria 0-5) (windgrass [20]): 4 (Herbicidal rate of 70% or more and less than 90%); herbicidal effect on M: velvetleaf (criteria 0-5) (velvetleaf [21]): 4 (Herbicidal rate of 70% or more and less than 90%); herbicidal effect on N: redroot pigweed (criteria 0-5) (redroot pigweed [22]): 3 (Herbicidal rate of 40% or more and less than 70%); herbicidal effect on O: lambsquarters (criteria 0-5) (lambsquarters [23]): 3 (Herbicidal rate of 40% or more and less than 70%); herbicidal effect on P: chickweed (criteria 0-5) (chickweed [24]): 5 (Herbicidal rate of 90% or more (almost completely withered)); herbicidal effect on R: persian speedwell (criteria 0-5) (persian speedwell [25]): 4 (Herbicidal rate of 70% or more and less than 90%) |
| CCOc1cccc(-c2sc3ccc(F)cc3c2-c2c(O)c(C)nn(C)c2=O)c1 [2-211] | 2 (Herbicidal rate of 20% or more and less than 40%) | 0 (Herbicidal rate of 5% or less (almost no effect)) | 0 (Herbicidal rate of 5% or less (almost no effect)) | 5 (Herbicidal rate of 90% or more (almost completely withered)) | 5 (Herbicidal rate of 90% or more (almost completely withered)) | 4 (Herbicidal rate of 70% or more and less than 90%) | 5 (Herbicidal rate of 90% or more (almost completely withered)) | 4 (Herbicidal rate of 70% or more and less than 90%) | 5 (Herbicidal rate of 90% or more (almost completely withered)) | 0 (Herbicidal rate of 5% or less (almost no effect)) | 4 (Herbicidal rate of 70% or more and less than 90%) | 5 (Herbicidal rate of 90% or more (almost completely withered)) | 3 (Herbicidal rate of 40% or more and less than 70%) | 3 (Herbicidal rate of 40% or more and less than 70%) | 5 (Herbicidal rate of 90% or more (almost completely withered)) | 2 (Herbicidal rate of 20% or more and less than 40%) | 3 (Herbicidal rate of 40% or more and less than 70%) | 5 (Herbicidal rate of 90% or more (almost completely withered)) | 5 (Herbicidal rate of 90% or more (almost completely withered)) | 5 (Herbicidal rate of 90% or more (almost completely withered)) | herbicidal effect on H: barnyard grass (criteria 0-5) (barnyard grass [16]): 5 (Herbicidal rate of 90% or more (almost completely withered)); herbicidal effect on I: wild oat (criteria 0-5) (wild oat [17]): 0 (Herbicidal rate of 5% or less (almost no effect)); herbicidal effect on J: blackgrass (criteria 0-5) (blackgrass [18]): 4 (Herbicidal rate of 70% or more and less than 90%); herbicidal effect on K: Italian ryegrass (criteria 0-5) (Italian ryegrass [19]): 5 (Herbicidal rate of 90% or more (almost completely withered)); herbicidal effect on L: windgrass (criteria 0-5) (windgrass [20]): 4 (Herbicidal rate of 70% or more and less than 90%); herbicidal effect on M: velvetleaf (criteria 0-5) (velvetleaf [21]): 5 (Herbicidal rate of 90% or more (almost completely withered)); herbicidal effect on N: redroot pigweed (criteria 0-5) (redroot pigweed [22]): 5 (Herbicidal rate of 90% or more (almost completely withered)); herbicidal effect on O: lambsquarters (criteria 0-5) (lambsquarters [23]): 5 (Herbicidal rate of 90% or more (almost completely withered)); herbicidal effect on P: chickweed (criteria 0-5) (chickweed [24]): 5 (Herbicidal rate of 90% or more (almost completely withered)); herbicidal effect on R: persian speedwell (criteria 0-5) (persian speedwell [25]): 5 (Herbicidal rate of 90% or more (almost completely withered)) |
